{"source": "patent US7595401B2", "about": "“Therapeutic compounds and their use in cancer” (Myriad Pharmaceuticals, Inc., priority 2006, dated 2009)", "data": [{"tested_on": "purified human Hsp90", "assay": "Binding Assay: fluorescence polarization with BODIPY-labeled geldanamycin", "details": "5 μM compound, BODIPY-GM 10 nM, Hsp90 30 nM", "how_it_was_run": "(§1)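 Compounds in 2% DMSO final compete with 10 nM BODIPY-GM for 30 nM purified human Hsp90, incubated overnight at room temperature in pH 7.3 HEPES buffer containing Na2MoO4 and DTT. Polarization (mP, ex/em 485/530) normalized to DMSO gives percent inhibition; autofluorescence-confounded data excluded.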", "units": {"% Inhibition at 5 μM Compound Concentration": "%"}, "values": [{"smiles": "Nc1ncn(CC[C@H]2CCCN(C=O)C2)c2nc(Sc3cc4c(cc3Br)OCO4)nc1-2", "note": "[Example 603, (3R)-3-(2-{6-Amino-8-[(6-bromo-1,3-benzodioxol-5-yl)thio]-3 H-purin-3-yl}ethyl)piperidine-1-carbaldehyde]", "% Inhibition at 5 μM Compound Concentration": 4.00}, {"smiles": "Nc1ncn(CCC2CC3CCC(C2)O3)c2nc(Sc3cc4c(cc3Br)OCO4)nc1-2", "note": "(centres unmarked) [Example 606]", "% Inhibition at 5 μM Compound Concentration": 49.00}, {"smiles": "CC12CCC(CC(CCn3cnc(N)c4nc(Sc5cc6c(cc5Br)OCO6)nc3-4)C1)O2", "note": "(centres unmarked) [Example 608, 8-[(6-Bromo-1,3-benzodioxol-5-yl)thio]-3-{2-[1-methyl-8-oxabicyclo[3.2.1]oct-3-yl]ethyl}-3 H-purin-6-amine]", "% Inhibition at 5 μM Compound Concentration": 5.00}, {"smiles": "CCn1nnnc1N1CCC(CCn2cnc(N)c3nc(Sc4cc5c(cc4Br)OCO5)nc2-3)CC1", "note": "[Example 611, 8-[(6-Bromo-1,3-benzodioxol-5-yl)thio]-3-{2-[1-(1-ethyl-1 H-tetrazol-5-yl)piperidin-4-yl]ethyl}-3 H-purin-6-amine]", "% Inhibition at 5 μM Compound Concentration": 22.00}, {"smiles": "CC(C)n1nnnc1N1CCC(CCn2cnc(N)c3nc(Sc4cc5c(cc4Br)OCO5)nc2-3)CC1", "note": "[Example 613, 8-[(6-Bromo-1,3-benzodioxol-5-yl)thio]-3-{2-[1-(1-isopropyl-1 H-tetrazol-5-yl)piperidin-4-yl]ethyl}-3 H-purin-6-amine]", "% Inhibition at 5 μM Compound Concentration": 15.00}, {"smiles": "CC(C)(C)n1nnnc1N1CCC(CCn2cnc(N)c3nc(Sc4cc5c(cc4Br)OCO5)nc2-3)CC1", "note": "[Example 615, 8-[(6-Bromo-1,3-benzodioxol-5-yl)thio]-3-{2-[1-(1-tert-butyl-1 H-tetrazol-5-yl)piperidin-4-yl]ethyl}-3 H-purin-6-amine]", "% Inhibition at 5 μM Compound Concentration": 13.00}, {"smiles": "N=C(N)N1CCC(CCn2cnc(N)c3nc(Sc4cc5c(cc4Br)OCO5)nc2-3)CC1", "note": "[Example 617, 4-(2-{6-Amino-8-[(6-bromo-1,3-benzodioxol-5-yl)thio]-3 H-purin-3-yl}ethyl)piperidine-1-carboximidamide]", "% Inhibition at 5 μM Compound Concentration": 83.00}, {"smiles": "CCCNC(=N)N1CCC(CCn2cnc(N)c3nc(Sc4cc5c(cc4Br)OCO5)nc2-3)CC1", "note": "[Example 619, 4-(2-{6-Amino-8-[(6-bromo-1,3-benzodioxol-5-yl)thio]-3 H-purin-3-yl}ethyl)-N-propylpiperidine-1-carboximidamide]", "% Inhibition at 5 μM Compound Concentration": 76.00}, {"smiles": "CCC(CC)N1CCN(CCn2cnc(N)c3nc(Sc4cc(OC)ccc4OC)nc2-3)CC1", "note": "[Example 628, 8-[(2,5-Dimethoxyphenyl)thio]-3-{2-[4-(1-ethylpropyl)piperazin-1-yl]ethyl}-3 H-purin-6-amine]", "% Inhibition at 5 μM Compound Concentration": 23.00}, {"smiles": "COc1ccc(OC)c(Sc2nc3c(N)ncn(CCN4CCOCC4)c-3n2)c1", "note": "[Example 636, 8-[(2,5-Dimethoxyphenyl)thio]-3-(2-morpholin-4-ylethyl)-3 H-purin-6-amine]", "% Inhibition at 5 μM Compound Concentration": 25.00}]}, {"target": "purified human Hsp90", "assay": "Binding Assay: fluorescence polarization with BODIPY-labeled geldanamycin", "details": "BODIPY-GM 10 nM, Hsp90 30 nM", "how_it_was_run": "as §1", "units": {"IC50": "nM"}, "values": [{"smiles": "Nc1ncnc2c1nc(Sc1cc3c(cc1Br)OCO3)n2CC[C@H]1CCCN(C=O)C1", "note": "[Example 604, (3R)-3-(2-{6-Amino-8-[(6-bromo-1,3-benzodioxol-5-yl)thio]-9 H-purin-9-yl}ethyl)piperidine-1-carbaldehyde]", "IC50": 190}, {"smiles": "Nc1ncnc2c1nc(Sc1cc3c(cc1Br)OCO3)n2CCC1CC2CCC(C1)O2", "note": "(centres unmarked) [Example 605]", "IC50": 56}, {"smiles": "CC12CCC(CC(CCn3c(Sc4cc5c(cc4Br)OCO5)nc4c(N)ncnc43)C1)O2", "note": "(centres unmarked) [Example 607, 8-[(6-Bromo-1,3-benzodioxol-5-yl)thio]-9-{2-[1-methyl-8-oxabicyclo[3.2.1]oct-3-yl]ethyl}-9 H-purin-6-amine]", "IC50": 62}, {"smiles": "Cn1nnnc1N1CCC(CCn2c(Sc3cc4c(cc3Br)OCO4)nc3c(N)ncnc32)CC1", "note": "[Example 609, 8-[(6-Bromo-1,3-benzodioxol-5-yl)thio]-9-{2-[1-(1-methyl-1 H-tetrazol-5-yl)piperidin-4-yl]ethyl}-9 H-purin-6-amine]", "IC50": 45}, {"smiles": "CCn1nnnc1N1CCC(CCn2c(Sc3cc4c(cc3Br)OCO4)nc3c(N)ncnc32)CC1", "note": "[Example 610, 8-[(6-Bromo-1,3-benzodioxol-5-yl)thio]-9-{2-[1-(1-ethyl-1 H-tetrazol-5-yl)piperidin-4-yl]ethyl}-9 H-purin-6-amine]", "IC50": 88}, {"smiles": "CC(C)n1nnnc1N1CCC(CCn2c(Sc3cc4c(cc3Br)OCO4)nc3c(N)ncnc32)CC1", "note": "[Example 612, 8-[(6-Bromo-1,3-benzodioxol-5-yl)thio]-9-{2-[1-(1-isopropyl-1 H-tetrazol-5-yl)piperidin-4-yl]ethyl}-9 H-purin-6-amine]", "IC50": 230}, {"smiles": "CC(C)(C)n1nnnc1N1CCC(CCn2c(Sc3cc4c(cc3Br)OCO4)nc3c(N)ncnc32)CC1", "note": "[Example 614, 8-[(6-Bromo-1,3-benzodioxol-5-yl)thio]-9-{2-[1-(1-tert-butyl-1 H-tetrazol-5-yl)piperidin-4-yl]ethyl}-9 H-purin-6-amine]", "IC50": 1800}, {"smiles": "N=C(N)N1CCC(CCn2c(Sc3cc4c(cc3Br)OCO4)nc3c(N)ncnc32)CC1", "note": "[Example 616, 4-(2-{6-Amino-8-[(6-bromo-1,3-benzodioxol-5-yl)thio]-9 H-purin-9-yl}ethyl)piperidine-1-carboximidamide]", "IC50": 90}, {"smiles": "CCCNC(=N)N1CCC(CCn2c(Sc3cc4c(cc3Br)OCO4)nc3c(N)ncnc32)CC1", "note": "[Example 618, 4-(2-{6-Amino-8-[(6-bromo-1,3-benzodioxol-5-yl)thio]-9 H-purin-9-yl}ethyl)-N-propylpiperidine-1-carboximidamide]", "IC50": 41}, {"smiles": "CC(=O)N1CCC(CCn2c(Sc3cc4c(cc3C#N)OCO4)nc3c(N)ncnc32)CC1", "note": "[Example 620, 6-({9-[2-(1-Acetylpiperidin-4-yl)ethyl]-6-amino-9 H-purin-8-yl}thio)-1,3-benzodioxole-5-carbonitrile]", "IC50": 170}, {"smiles": "CC(=O)N1CCC(CCn2cnc(N)c3nc(Sc4cc5c(cc4C#N)OCO5)nc2-3)CC1", "note": "[Example 621, 6-({3-[2-(1-Acetylpiperidin-4-yl)ethyl]-6-amino-3 H-purin-8-yl}thio)-1,3-benzodioxole-5-carbonitrile]", "IC50": "> 5000"}, {"smiles": "COc1cc(C#N)c(Sc2nc3c(N)ncnc3n2CCC2CCN(C(C)=O)CC2)cc1OC", "note": "[Example 622, 2-({9-[2-(1-Acetylpiperidin-4-yl)ethyl]-6-amino-9 H-purin-8-yl}thio)-4,5-dimethoxybenzonitrile]", "IC50": "> 5000"}, {"smiles": "COc1cc(C#N)c(Sc2nc3c(N)ncn(CCC4CCN(C(C)=O)CC4)c-3n2)cc1OC", "note": "[Example 623, 2-({3-[2-(1-Acetylpiperidin-4-yl)ethyl]-6-amino-3 H-purin-8-yl}thio)-4,5-dimethoxybenzonitrile]", "IC50": "> 4000"}, {"smiles": "COCc1cc2c(cc1Sc1nc3c(N)ncnc3n1CCC1CCN(C=O)CC1)OCO2", "note": "[Example 624, 4-[2-(6-Amino-8-{[6-(methoxymethyl)-1,3-benzodioxol-5-yl]thio}-9 H-purin-9-yl)ethyl]piperidine-1-carbaldehyde]", "IC50": 580}, {"smiles": "C#CCN1CCC(CCn2c(Sc3cc4c(cc3Br)OCO4)nc3c(N)ncnc32)CC1", "note": "[Example 625, 8-[(6-Bromo-1,3-benzodioxol-5-yl)thio]-9-[2-(1-prop-2-yn-1-ylpiperidin-4-yl)ethyl]-9 H-purin-6-amine]", "IC50": 110}, {"smiles": "CCC(CC)N1CCN(CCn2c(Sc3cc(OC)ccc3OC)nc3c(N)ncnc32)CC1", "note": "[Example 627, 8-[(2,5-Dimethoxyphenyl)thio]-9-{2-[4-(1-ethylpropyl)piperazin-1-yl]ethyl}-9 H-purin-6-amine]", "IC50": "> 8000"}, {"smiles": "COc1ccc(OC)c(Sc2nc3c(N)ncnc3n2CCN2CCN(C(C)=O)CC2)c1", "note": "[Example 629, 9-[2-(4-Acetylpiperazin-1-yl)ethyl]-8-[(2,5-dimethoxyphenyl)thio]-9 H-purin-6-amine]", "IC50": "> 25000"}, {"smiles": "COc1ccc(OC)c(Sc2nc3c(N)ncn(CCN4CCN(C(C)=O)CC4)c-3n2)c1", "note": "[Example 630, 3-[2-(4-Acetylpiperazin-1-yl)ethyl]-8-[(2,5-dimethoxyphenyl)thio]-3 H-purin-6-amine]", "IC50": 9000}, {"smiles": "COc1ccc(OC)c(Sc2nc3c(N)ncnc3n2CCN2CCN(C)CC2)c1", "note": "[Example 631, 8-[(2,5-Dimethoxyphenyl)thio]-9-[2-(4-methylpiperazin-1-yl)ethyl]-9 H-purin-6-amine]", "IC50": 2000}, {"smiles": "Nc1ncnc2c1nc(Sc1cc3c(cc1Br)OCO3)n2CCN1CCN(C2CCCC2)CC1", "note": "[Example 632, 8-[(6-Bromo-1,3-benzodioxol-5-yl)thio]-9-[2-(4-cyclopentylpiperazin-1-yl)ethyl]-9 H-purin-6-amine]", "IC50": "> 3000"}, {"smiles": "CC(C)(C)C(=O)N1CCN(CCn2c(Sc3cc4c(cc3Br)OCO4)nc3c(N)ncnc32)CC1", "note": "[Example 633, 8-[(6-Bromo-1,3-benzodioxol-5-yl)thio]-9-{2-[4-(2,2-dimethylpropanoyl)piperazin-1-yl]ethyl}-9 H-purin-6-amine]", "IC50": 1500}, {"smiles": "COc1ccc(OC)c(Sc2nc3c(N)ncnc3n2CCN2CCNC(=O)C2)c1", "note": "[Example 634, 4-(2-{6-Amino-8-[(2,5-dimethoxyphenyl)thio]-9 H-purin-9-yl}ethyl)piperazin-2-one]", "IC50": 8100}, {"smiles": "CC(C)(C)OC(=O)N1CCCC(CCCn2c(Sc3cc4c(cc3Br)OCO4)nc3c(N)ncnc32)C1", "note": "(centres unmarked) [Example 637, tert-Butyl 3-(3-{6-amino-8-[(6-bromo-1,3-benzodioxol-5-yl)thio]-9 H-purin-9-yl}propyl)piperidine-1-carboxylate]", "IC50": "> 25000"}, {"smiles": "CC(C)(C)OC(=O)N1CCCCC1CCCn1c(Sc2cc3c(cc2Br)OCO3)nc2c(N)ncnc21", "note": "(centres unmarked) [Example 638, tert-Butyl 2-(3-{6-amino-8-[(6-bromo-1,3-benzodioxol-5-yl)thio]-9 H-purin-9-yl}propyl)piperidine-1-carboxylate]", "IC50": "> 25000"}, {"smiles": "CC(C)(C)OC(=O)N1CCC(Cn2c(Sc3cc4c(cc3Br)OCO4)nc3c(N)ncnc32)CC1", "note": "[Example 639, tert-Butyl 4-({6-amino-8-[(6-bromo-1,3-benzodioxol-5-yl)thio]-9 H-purin-9-yl}methyl)piperidine-1-carboxylate]", "IC50": 900}]}]}
